{"source": "patent US20260027073A1", "about": "“USE OF SMALL-MOLECULE COMPOUND HAVING NAPHTHYLAMINE STRUCTURE” (HANGZHOU PHECDAMED CO., LTD., priority 2023, published 2026)", "key": {"UUO model mice": {"tested_on": "UUO model mice", "test": "UUO-induced renal fibrosis", "assay_type": "in vivo", "protocol": "The UUO model is currently the most widely used experimental animal model for studying renal tubulointerstitial fibrosis. By ligating a unilateral ureter to cause obstruction of the renal drainage system, leading to acute alterations in renal function and chronic damage to renal structure, it simulates renal interstitial injury caused by ureteral obstruction, which is common in clinical practice. The modeling was performed as follows: • (1) On the first day of the test, mice were given 50 mg/kg sodium pentobarbital anesthesia, after confirming that the mice were under anesthesia and preparing and disinfecting the skin, an incision of about 1 cm at 1 cm left and below of the costovertebral angle was made, the left side of the kidney was fully exposed and the ureter was sought downward along the renal hilum, and the ureter was ligated with a 6-0 nylon thread, and after ligation, the muscle and the skin layers were sutured layer by layer. In the sham group, only the kidney was exposed, but it was not ligated, and sutured directly. The experiments were divided into a sham group (Sham, oral gavage of vehicle), a model control group (vehicle, oral gavage of vehicle), a TJ01-013 10 mg/kg treatment group ([…]), and the vehicle used is 0.5% CMC-Na, administered at a dose of 10 ml/kg, and the frequency of administration was once a day. The drug was administered continuously for 7 days after UUO surgery, at the endpoint of the test, immediately after the mice were put to death, saline was perfused through the heart until the blood in the kidneys was completely drained and the kidneys were transformed from a dark red color to khaki. The operated kidney on the side was collected, the kidney was cut through the short axis of the kidney, and the kidney tissue samples were stored separately according to the requirements of the test. • (2) Renal histopathology\nKidney tissues were fixed with 4% paraformaldehyde for 48 hours, paraffin-embedded, sectioned at a thickness of 4 μm, and Masson stained. Specific experimental procedures were performed as described previously, and after sectioning and scanning the images, the results were analyzed semi-quantitatively using Image J software.\nTotal RNA was extracted from kidney tissue samples by Tissue RNA Rapid Extraction Kit, and the concentration and purity of RNA were determined by micro-ultraviolet spectrophotometer, and then operated according to the instruction steps of HiScript® II 1st Strand cDNA Synthesis Kit, the cDNA was reversely transcribed with 1 μg of total amount of […], followed by a 15 ul amplification system, with 5 μL of cDNA, 7.5 μL of 2×SYBR Premix Ex Taq™, 0.3 μL of each of forward and reverse primers, and the rest was supplemented with double-distilled water. The conditions of the Bio-Rad reaction were 95° C. for 5 min, denaturation at 95° C. for 10 seconds, annealing/extension at 60° C. for 30 seconds for 40 cycles, and 65° C. for 15 min. The expression of the target gene was calculated by 2-ΔΔCt relative quantification. The Ct value of the target gene was first corrected by the internal reference gene (β-actin), and then compared with the control group to derive the relative expression level. […]"}, "[1]": {"tested_on": "Mesenchymal stem cells (MSC) differentiated from normal human pluripotent stem cells (iPSC)", "test": "Senescence of normal human derived mesenchymal stem cells", "assay_type": "cell-based", "settings": "10 μM", "protocol": "Mesenchymal stem cells (MSC) differentiated from normal human pluripotent stem cells (iPSC) were taken for culture, and the experiment was divided into three groups: young cells cultured for 6 generations, labeled as Con-Y; senescent cells cultured for 16 generations, labeled as Con-O; and the administration group, to which 10 μM TJ01-013 was added during the process of culture, similarly cultured up to the 16th generation, and labeled as Con-O+TJ01-013, and after the end of the treatment, all cells were placed under the microscope to observe the morphology of the cells, and the percentage of SA-β-gal+ cells was count. The levels of the DNA damage marker γ-H2AX and the heterochromatin modification H3K9me3 after TJ01-013 treatment were detected by immunofluorescence technique (procedure described previously)."}, "[2]": {"tested_on": "chronic obstructive pulmonary disease model rats", "test": "Chronic obstructive pulmonary disease (LPS plus passive smoking)", "assay_type": "in vivo, SD rats", "settings": "gavage 3 weeks, FIG. 62", "protocol": "After 5-week-old male SD rats were adaptively fed for 1 week, they were randomly grouped according to their body weights into five groups, i.e., a normal control group (normal, n=10), a model control group (Control, n=10), a TJ01-013 7.5 mg/kg treatment group (7.5 mg/kg, n=10), a TJ01-013 15 mg/kg treatment group (15 mg/kg, n=10), TJ01-013 30 mg/kg treatment group (30 mg/kg, n=10). The model was replicated using the intra-airway injection of lipopolysaccharide method combined with passive smoking method, which is a recognized model for chronic obstructive pulmonary disease. […] From the second day of modeling, the normal control group and the model control group were treated with vehicle (0.5% CMC-Na) by gavage, and the TJ01-013 treatment group was treated with the corresponding concentration of TJ01-013 in a volume of 10 ml/kg for a total of 3 weeks, and blood was collected from the posterior bulbous vein of the rat after administration, and the blood was centrifuged at 6,000 rpm for 10 min after standing still at room temperature for 30 min, then the upper layer of serum was taken, and the levels of TNFα and CXCL1 in serum were detected by enzyme-linked immunosorbent assay (ELISA)."}, "[3]": {"settings": "vs UUO+Vehicle, western blot, FIG. 31"}}, "data": [{"smiles": "O=C(O)C[S+]([O-])c1cc(NS(=O)(=O)c2ccc(Br)cc2)c2ccccc2c1O", "note": "(centres unmarked) [I-1]", "values": [{"measurement": "Collagen volume fraction %, renal cortex (Masson)", "setting": "UUO model mice; 10 mg/kg TJ01-013, no significant effect vs model control 4.67%, FIG. 29", "value": 5.58, "unit": "%"}, {"measurement": "Collagen volume fraction %, renal cortex (Masson)", "setting": "UUO model mice; 30 mg/kg TJ01-013, vs model control 4.67%, p<0.05, FIG. 29", "value": 0.61, "unit": "%"}, {"measurement": "fibrosis in the renal medulla", "setting": "UUO model mice; FIG. 29", "value": "reducing effect on fibrosis"}, {"measurement": "autophagic vesicles with double-layer or multi-layer membrane structure in the cell (TEM)", "setting": "UUO model mice; FIG. 32", "value": "more autophagic vesicles"}, {"measurement": "morphology of renal tubular epithelial cells and mitochondria (TEM)", "setting": "UUO model mice; relative to normal and UUO, FIG. 32", "value": "in between the former two"}, {"measurement": "Col1a1 gene mRNA expression in renal tissue", "setting": "UUO model mice; vs UUO+Vehicle, FIG. 30", "value": "certain tendency to inhibit"}, {"measurement": "Fn1 gene mRNA expression in renal tissue", "setting": "UUO model mice; vs UUO+Vehicle, FIG. 30", "value": "significantly reduced"}, {"measurement": "collagen type I (collagen I) protein level in kidney", "setting": "UUO model mice; [3]", "value": "significantly reduced"}, {"measurement": "fibronectin FN protein level in kidney", "setting": "UUO model mice; [3]", "value": "significantly reduced"}, {"measurement": "percentage of SA-β-gal-positive cells", "setting": "[1]; 16th generation, vs Con-O, FIG. 51", "value": "significantly decreased"}, {"measurement": "level of DNA damage marker γ-H2AX", "setting": "[1]; FIG. 52", "value": "significantly reduced"}, {"measurement": "expression level of heterochromatin-modified H3K9me3", "setting": "[1]; FIG. 53", "value": "restored its expression level to some extent"}, {"measurement": "serum CXCL1 level", "setting": "[2]; 15 mg/kg and 30 mg/kg", "value": "reduce"}, {"measurement": "serum TNFα level", "setting": "[2]; 30 mg/kg", "value": "reduced the serum TNFα level, and the difference was significant"}]}]}
